Among the data in PubChem BioAssay AID328 (DTP/NCI, 2004) are T/C values, retold here.

This experiment relates to BDF1 mice, P388 leukemia ip, median survival T/C. Nature of the experiment: NCI In Vivo Anticancer Drug Screen. Data for tumor model P388 Leukemia (intraperitoneal) in B6D2F1 (BDF1) mice. Particulars: endpoint: median survival time, higher = longer survival. The method, boiled down:
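Read-out is survival of treated animals expressed relative to the vehicle group, as a T/C ratio.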

Where [1] appears, read: dose: 100.0 mg/kg/injection, schedule: Q04DX003 (ip), vehicle: other.
The mark [2] stands for this setting: dose: 200.0 mg/kg/injection, schedule: Q04DX003 (ip), vehicle: other.
The mark [3] stands for this setting: dose: 100.0 mg/kg/injection, schedule: Q04DX003 (ip), vehicle: saline with Tween-80.
[4] abbreviates: dose: 200.0 mg/kg/injection, schedule: Q04DX003 (ip), vehicle: saline with Tween-80.
Where [5] appears, read: dose: 400.0 mg/kg/injection, schedule: Q04DX003 (ip), vehicle: saline with Tween-80.
[6] abbreviates: dose: 200.0 mg/kg/injection, schedule: Q01DX009 (ip), vehicle: saline with Tween-80.
The mark [7] stands for this setting: dose: 50.0 mg/kg/injection, schedule: Q01DX009 (ip), vehicle: saline with Tween-80.
Where [8] appears, read: dose: 100.0 mg/kg/injection, schedule: Q01DX009 (ip), vehicle: saline with Tween-80.
Setting [9] is: dose: 12.5 mg/kg/injection, schedule: Q01DX009 (ip), vehicle: saline.
The mark [10] stands for this setting: dose: 25.0 mg/kg/injection, schedule: Q01DX009 (ip), vehicle: saline.
Where [11] appears, read: dose: 50.0 mg/kg/injection, schedule: Q01DX009 (ip), vehicle: saline.
[12] abbreviates: dose: 50.0 mg/kg/injection, schedule: Q04DX003 (ip), vehicle: saline.
Where [13] appears, read: dose: 100.0 mg/kg/injection, schedule: Q04DX003 (ip), vehicle: Klucel (hydroxypropylcellulose) (HPC).
Where [14] appears, read: dose: 200.0 mg/kg/injection, schedule: Q04DX003 (ip), vehicle: Klucel (hydroxypropylcellulose) (HPC).
Where [15] appears, read: dose: 100.0 mg/kg/injection, schedule: Q01DX009 (ip), vehicle: saline.
Setting [16] is: dose: 100.0 mg/kg/injection, schedule: Q04DX003 (ip), vehicle: saline.
The mark [17] stands for this setting: dose: 200.0 mg/kg/injection, schedule: Q01DX009 (ip), vehicle: saline.
The mark [18] stands for this setting: dose: 200.0 mg/kg/injection, schedule: Q04DX003 (ip), vehicle: saline.
Where [19] appears, read: dose: 400.0 mg/kg/injection, schedule: Q01DX009 (ip), vehicle: saline.
Setting [20] is: dose: 400.0 mg/kg/injection, schedule: Q04DX003 (ip), vehicle: saline.

Where “and” joins values, the source holds several entries; their conditions need not be identical. Equal entries are not always repeated. Inconclusive results and toxic doses are left out.

Take `Oc1ccc(OCc2ccccc2)cc1`: the T/C by setting is: under setting [1], 100 % of control; under setting [2], 104 % of control; (dose: 400.0 mg/kg/injection, schedule: Q04DX003 (ip), vehicle: other) 100 % of control.

Turning to `CC[NH-].CC[NH-].[Br][Pt+2][Br]`, the T/C is 100 % of control (dose: 20.0 mg/kg/injection, schedule: Q04DX003 (ip), vehicle: other); 158 % of control (dose: 30.0 mg/kg/injection, schedule: Q04DX003 (ip), vehicle: other); 154 % of control and 166 % of control (dose: 44.0 mg/kg/injection, schedule: Q04DX003 (ip), vehicle: other); 159 % of control (dose: 66.0 mg/kg/injection, schedule: Q04DX003 (ip), vehicle: other); 166 % of control and 168 % of control under setting [1]; 154 % of control (dose: 150.0 mg/kg/injection, schedule: Q04DX003 (ip), vehicle: other). The T/C under setting [2] was 162 % of control.

As for `O=NN(CCCl)C(=O)c1cc(Cl)cc(Cl)c1`, the T/C was 104 % of control (dose: 25.0 mg/kg/injection, schedule: Q04DX003 (ip), vehicle: saline with Tween-80); 104 % of control (dose: 50.0 mg/kg/injection, schedule: Q04DX003 (ip), vehicle: saline with Tween-80); 100 % of control and 118 % of control under setting [3]; 100 % of control and 104 % of control under setting [4]; 100 % of control under setting [5].

As to `CCC(CO)NC(=O)/C=C/c1ccc(Cl)cc1` (stereo not given), the T/C under setting [6] was 91 % of control.

Regarding `CCCCCCCCCCCC(=O)CC(SCC)c1ccccc1` (stereo not given), the T/C is 96 % of control under setting [7], 87 % of control under setting [8] and 89 % of control under setting [6].

On to `CC(C)(C)C([NH-])=O.CC(C)(C)C([NH-])=O.[Cl][Pt+2][Cl]`, for which the T/C was 88 % of control (dose: 3.12 mg/kg/injection, schedule: Q01DX009 (ip), vehicle: saline); 92 % of control (dose: 6.25 mg/kg/injection, schedule: Q01DX009 (ip), vehicle: saline); 108 % of control under setting [9]; 105 % of control (dose: 12.5 mg/kg/injection, schedule: Q04DX003 (ip), vehicle: saline); 92 % of control under setting [10]; 107 % of control (dose: 25.0 mg/kg/injection, schedule: Q04DX003 (ip), vehicle: saline). The T/C under setting [11] was 94 % of control and the T/C under setting [12] is 98 % of control.

Consider `CCN(CC)c1ccc(C(=C(c2ccc(N(CC)CC)cc2)c2ccc(N(CC)CC)cc2)c2ccc(N(CC)CC)cc2)cc1`, for which the T/C by setting is: (dose: 50.0 mg/kg/injection, schedule: Q04DX003 (ip), vehicle: Klucel (hydroxypropylcellulose) (HPC)) 100 % of control; under setting [13], 104 % of control; under setting [14], 90 % of control.

On to `CCSC(=O)CC`, for which the T/C under setting [7] is 95 % of control; the T/C under setting [8] was 105 % of control; the T/C under setting [3] is 104 % of control; the T/C under setting [6] was 100 % of control; the T/C under setting [4] is 104 % of control; the T/C under setting [5] was 100 % of control.

As to `CC(C)SC=O`, the T/C was 100 % of control under setting [10]; 101 % of control under setting [11]; 101 % of control under setting [12]; 92 % of control and 97 % of control under setting [15]; 109 % of control under setting [16]; 86 % of control under setting [17]. In addition, the T/C runs as follows: under setting [18], 98 % of control; under setting [19], 97 % of control and 118 % of control; under setting [20], 103 % of control.

For `CC(N)C(=O)NCC(=O)NCC(=O)O` (stereo not given), the T/C runs as follows: under setting [15], 95 % of control; under setting [16], 104 % of control; under setting [17], 104 % of control; under setting [18], 95 % of control; under setting [19], 100 % of control; under setting [20], 95 % of control.

As to `O=C1C=C2SCCN2C(=O)C1`, the T/C is, setting by setting: (dose: 25.0 mg/kg/injection, schedule: Q01DX009 (ip), vehicle: saline with Tween-80) 99 % of control; under setting [7], 99 % of control and 109 % of control; under setting [8], 97 % of control and 124 % of control; under setting [6], 105 % of control and 114 % of control.

Consider `O=[N+]([O-])c1cccnc1Cl`, for which the T/C (dose: 50.0 mg/kg/injection, schedule: Q01DX009 (ip), vehicle: Klucel (hydroxypropylcellulose) (HPC)) was 91 % of control; the T/C (dose: 100.0 mg/kg/injection, schedule: Q01DX009 (ip), vehicle: Klucel (hydroxypropylcellulose) (HPC)) was 100 % of control; the T/C under setting [13] was 104 % of control; the T/C (dose: 200.0 mg/kg/injection, schedule: Q01DX009 (ip), vehicle: Klucel (hydroxypropylcellulose) (HPC)) is 91 % of control; the T/C under setting [14] is 100 % of control.

With `CN(C)P(=O)(N(C)C)N(C)CCN(C)P(=O)(N(C)C)N(C)C`, the T/C is, setting by setting: under setting [9], 108 % of control; under setting [10], 101 % of control; under setting [11], 101 % of control and 111 % of control.

Take `Cc1nc(N)[nH]c(=O)c1CCCNc1cccc(C(F)(F)F)c1`: the T/C was 100 % of control (dose: 100.0 mg/kg/injection, schedule: Q01DX001 (ip), vehicle: Klucel (hydroxypropylcellulose) (HPC)); 104 % of control (dose: 200.0 mg/kg/injection, schedule: Q01DX001 (ip), vehicle: Klucel (hydroxypropylcellulose) (HPC)); 104 % of control (dose: 400.0 mg/kg/injection, schedule: Q01DX001 (ip), vehicle: Klucel (hydroxypropylcellulose) (HPC)).

Take `O=C1C(=C(C(F)(F)F)C(F)(F)F)CCc2ccc([N+](=O)[O-])cc21`: the T/C reads like this: under setting [3], 110 % of control; under setting [5], 110 % of control.

As to `CCCCC[C@H](CN(C)C)[C@H](O)/C=C/c1ccc(Cl)cc1`, the T/C reads like this: under setting [9], 101 % of control; under setting [10], 112 % of control; under setting [11], 108 % of control.

Regarding `COc1cc(C(=O)N2CCN(c3ccccc3)CC2)c2ccccc2n1`, the T/C runs as follows: (dose: 180.0 mg/kg/injection, schedule: Q01DX010 (ip), vehicle: carboxymethylcellulose (CMC)) 114 % of control; (dose: 266.0 mg/kg/injection, schedule: Q01DX010 (ip), vehicle: carboxymethylcellulose (CMC)) 104 % of control; (dose: 400.0 mg/kg/injection, schedule: Q01DX010 (ip), vehicle: carboxymethylcellulose (CMC)) 104 % of control; (dose: 600.0 mg/kg/injection, schedule: Q01DX010 (ip), vehicle: carboxymethylcellulose (CMC)) 95 % of control.
